{"source": "patent US8778961B2", "about": "“O-methylated rapamycin derivatives for alleviation and inhibition of lymphoproliferative disorders” (The Trustees of the University of Pennsylvania, priority 2000, dated 2014)", "key": {"[1]": {"system": "PTLD-like EBV+ B cell lines", "test": "in vitro cell growth inhibition (3H-thymidine incorporation)", "format": "cell-based, human", "conditions": "for degree of inhibition of growth: 0-10 nanomolar", "source_text": "Most cell lines used in this study were lymphoblastoid B-cell lines obtained by in vitro infection with EBV of peripheral blood mononuclear cells (PBMC). Cell lines A1 and A2D6 were obtained from normal, healthy individuals. Cell lines 15A and 20A were obtained from two different patients with a low grade B-cell lymphoma with monoclonal cold agglutinins (Silberstein et al., 1991, Blood 78:2372-2386). Both lines secreted cold agglutinins with the same specificity as the cold agglutinins found in the patient's serum (Silberstein et al., 1991, Blood 78:2372-2386). […] LCL B-cell line was obtained from a patient with a progressive cutaneous T-cell lymphoproliferative disorder (Zhang et al., 1996, Proc. Natl. Acad. Sci. USA 93:9148-9153). BC-1 is derived from a peritoneal effusion B-cell lymphoma (PEL) and, in addition to EBV, harbors […] virus (Cesarman et al., 1995, Blood 86:2708-2714). The other 3 cell lines used as controls in the in vitro growth inhibition assay were HTLV-I (+) T-cell lines ATL-2 (Maeda et al., 1985, Exp. Med. 162:2169-2174); C10MJ2 (Popovic et al., 1983, Science 219: 856-859); and HUT102B (Poiescz, 1980, Proc. Natl. Acad. Sci. USA 77:7415-7419; Bunn, et al, 1996, J. Cell. Biochem. Suppl 24:12-23) derived from patients with adult T-cell leukemia/lymphoma (ATLL). They were shown by us to be non-responsive to SDZ RAD and the related, immunosuppressive macrolide, rapamycin (Zhang et al., 1999, Leukemia Res. 23:373-384). All cell lines were maintained in humidified incubators at 37° C. in an atmosphere containing 5% CO2 in standard medium: RPMI Medium 1640 (Gibco BRL, Grand Island, N.Y.) supplemented with 10% (v/v) heat inactivated fetal bovine serum (BioWhittaker, Walkersville, Md.), 1% penicillin/streptomycin/fungizone mixture (Gibco BRL), and 2 millimolar L-glutamine (Gibco BRL).\nAn assay to assess inhibition of in vitro cell growth by SDZ RAD was performed as described (Zhang et al., 1999, Leukemia Res. 23:373-384; Zhang et al., 1996, Proc. Natl. Acad. Sci. USA 93:9148-9153). Briefly, cell lines were cultured for 32 hours in triplicate at 2×10^4 cells per well in the presence of various concentrations of SDZ RAD (Novartis Pharma, Basel). After pulsing the cells with 0.5 microcurie ^3H-thymidine (New England Nuclear, Boston, Mass.) and culturing the cells for the next 18 hours, isotope incorporation into the cells was measured. The results of proliferation assays were expressed as the mean radioactivity of triplicate cultures. Standard deviation within the triplicates was <15%.\nIn order to determine whether SDZ RAD can inhibit proliferation of cells mimicking PTLDs, 6 different EBV^+ B cell lines were cultured in vitro in the presence of the drug at various concentrations. […]"}, "[2]": {"test": "toxicity study in BALB/c and SCID mice", "format": "in vivo", "conditions": "5 milligrams per kilogram body weight per day", "source_text": "Five- to seven-week-old immunodeficient SCID mice (C.B-17 and ICR) were purchased from Taconic (Germantown, N.J.) and housed at the University of Pennsylvania Animal Facility under pathogen-free conditions in a laminar air flow unit and supplied with sterile food and water. In the toxicity studies, 5-7 week old inbred BALB/c mice (Taconic) were used in addition to the SCID mice.\nMice were sacrificed by exposure to FORANE™ (isoflurane, Ohmeda, Liberty Place, N.J.) on day 29 in the drug toxicity study, on day 40-55 in the tumor growth inhibition study or when tumors achieved approximately 2 centimeter diameter, or when ulceration of the skin, signs of severe respiratory distress, weakness, or lethargy appeared. Complete autopsy was performed on all mice at the end of the study regardless of their appearance. Tumor and internal organs (spleen, liver, lung, heart, kidney, small and large intestines, femoral bone for bone marrow) were fixed in 10% (v/v) formalin, embedded in paraffin, cut into […] sections, transferred to glass slides, and stained with hematoxylin and eosin. Representative tumor fragments were stained immunohistochemically by standard streptavidin-biotin complex technique using commercially available reagents (Research Genetics, Huntsville, Ala.), antibodies: anti-CD20 (L-26) and LMP-1 (both from DAKO, Carpinteria, Calif.) and Ki67 (mib1; Immunotech, Westbrook, Me.). EBV-encoded RNA (EBER-1), and detected using commercially available reagents.\nPrevious studies have shown that a minimal effective dose of SDZ RAD in rats was 5 milligrams per kilogram body weight per day and >5 milligrams per kilogram body weight per day in the in kidney and heart transplant model, respectively, when SDZ RAD was used as a single immunosuppressive agent (Schuurman et al., 1997, Transplantation 64:32-5; Schuler et al. 1997, Transplantation 64: 36-42). In order to determine if prolonged exposure to SDZ RAD is non-toxic for mice, both immunocompetent and immunodeficient, a cohort of normal BALB/c mice were treated with the above dose of SDZ RAD for 28 days. Ten treated and 5 control, untreated mice were used in this study. Later SCID mice which were transplanted with human PTLD-like lymphomas and treated with SDZ RAD for up to 55 days were evaluated. Seven treated and 5 control untreated SCID mice were evaluated in this experiment. After receiving the final dose of the drug, all mice were sacrificed and the following organs were harvested for histopathologic evaluation to investigate for possible toxic effects: liver, spleen, kidney, small intestine, large intestine, heart, lung, and femoral bone for bone marrow."}, "[3]": {"conditions": "BALB/c 28 days, SCID up to 55 days"}}, "data": [{"smiles": "CO[C@H]1C[C@@H]2CC[C@@H](C)[C@@](O)(O2)C(=O)C(=O)N2CCCC[C@H]2C(=O)O[C@H]([C@H](C)C[C@@H]2CC[C@@H](OCCO)[C@H](OC)C2)CC(=O)[C@H](C)/C=C(\\C)[C@@H](O)[C@@H](OC)C(=O)[C@H](C)C[C@H](C)/C=C/C=C/C=C/1C", "note": "[SDZ RAD, 40-O-(2-hydroxy)ethyl-rapamycin]", "values": [{"measurement": "inhibition of growth", "setting": "[1]; 1 nanomolar, all EBV+ B cell lines, 32 hours culture then 18 hours 3H-thymidine pulse", "result": "60-95%"}, {"measurement": "sensitivity of cell lines to the drug", "setting": "[1]; all PTLD-like EBV+ B cell lines", "result": "very sensitive"}, {"measurement": "degree of inhibition of growth", "setting": "[1]; cell lines obtained from normal B cells", "result": "90-100%"}, {"measurement": "degree of inhibition of growth", "setting": "[1]; lines derived from patients with B-cell lymphomas (15A, 20A and BC-1)", "result": "80-90%"}, {"measurement": "growth and weight gain vs control group", "setting": "[2]; [3]", "result": "the same"}, {"measurement": "visible signs of drug toxicity", "setting": "[2]; [3]", "result": "None of the treated mice"}, {"measurement": "microscopic evaluation of organs", "setting": "[2]; liver, spleen, kidney, intestines, heart, lung, bone marrow", "result": "no pathologic changes"}, {"measurement": "adverse effect of prolonged exposure", "setting": "[2]; regardless of immune status", "result": "no adverse effect"}]}]}
